Paper PMC8548588, “Cesium tolerance is enhanced by a chemical which binds to BETA-GLUCOSIDASE 23 in Arabidopsis thaliana” (Scientific Reports, 2021)

Target: T1, AtβGLU23 (BETA-GLUCOSIDASE 23, PYK10) (Arabidopsis thaliana, UniProt Q9SR37)
T1 construct: gene BGLU23; native protein from total protein extract of 11-day-old seedlings
T1 sequence (Q9SR37 25-524): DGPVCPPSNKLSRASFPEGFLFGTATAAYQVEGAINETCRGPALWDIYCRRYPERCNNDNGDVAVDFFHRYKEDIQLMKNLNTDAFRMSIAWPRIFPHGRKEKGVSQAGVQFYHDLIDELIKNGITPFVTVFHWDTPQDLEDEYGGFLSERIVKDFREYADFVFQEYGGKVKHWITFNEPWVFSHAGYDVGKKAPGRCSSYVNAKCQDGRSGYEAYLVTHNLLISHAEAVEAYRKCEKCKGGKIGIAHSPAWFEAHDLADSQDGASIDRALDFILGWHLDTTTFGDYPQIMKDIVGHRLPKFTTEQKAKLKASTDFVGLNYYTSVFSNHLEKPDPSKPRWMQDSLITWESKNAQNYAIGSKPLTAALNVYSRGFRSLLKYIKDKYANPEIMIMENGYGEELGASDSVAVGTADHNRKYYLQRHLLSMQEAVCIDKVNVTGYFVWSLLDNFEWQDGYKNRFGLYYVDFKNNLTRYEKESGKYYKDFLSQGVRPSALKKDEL
Experiment: pull-down from plant extract with photo-cross-linked compound beads, SDS-PAGE, LC-MS/MS
Format: binding
Conditions: compound immobilised on photoaffinity-linker-coated agarose beads; 10 mM CsCl, pH 7.6, 4 °C, 18-24 h; control beads without compound

## Cc1cc(C(=O)Cn2cc(C(F)(F)F)ccc2=O)c(C)n1C(C)C [CsToAcE1, 1-[2-[2,5-Dimethyl-1-(propan-2-yl)-1H-pyrrol-3-yl]-2-oxoethyl]-5-(trifluoromethyl)-1,2-dihydropyridin-2-one]
  pull-down from plant extract with photo-cross-linked compound beads, SDS-PAGE, L: CsToAcE1, binds to AtβGLU23
